Measured values taken from patent publication US10227331B2 (priority 2015, dated 2019).

Columns and labels:
[1] = tested on: Klebsiella pneumoniae expressing VIM-1 (IHMA599644); type: cell-based; conditions: with imipenem 1 μg/ml, 95% inhibition of bacterial growth; for Klebsiella pneumoniae MITC95: VIM-1 (IHMA599644)
Summary of the method: (§1)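 Clinical strains grown overnight on blood agar, then diluted 1:100 in 1.1× CAMHB and exposed to test compound with imipenem at 1 μg/ml. Incubation was 22–24 h at 35° C; growth was read by absorbance to find the compound concentration restoring imipenem susceptibility.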

[2] = tested on: Serratia marcescens expressing IMP-1 (CL5741); type: cell-based; conditions: with imipenem 1 μg/ml, 95% inhibition of bacterial growth; for Serratia marcescens MITC95: IMP-1 (CL5741)
Summary of the method: as §1

[3] = tested on: Escherichia coli expressing NDM-1 (CLB30005, CLB30016); type: cell-based; conditions: with imipenem 1 μg/ml, 95% inhibition of bacterial growth; for Escherichia coli MITC95: NDM-1 (CLB30016)
Summary of the method: as §1

IMP-1 = IMP-1 (Serratia marcescens, UniProt P52699); test: biochemical; type: biochemical; conditions: CCF2-FA substrate, 2 hours at 25° C; read-out: IMP-1 IC50
IMP-1, sequence (P52699 whole entry, looked up, species assumed): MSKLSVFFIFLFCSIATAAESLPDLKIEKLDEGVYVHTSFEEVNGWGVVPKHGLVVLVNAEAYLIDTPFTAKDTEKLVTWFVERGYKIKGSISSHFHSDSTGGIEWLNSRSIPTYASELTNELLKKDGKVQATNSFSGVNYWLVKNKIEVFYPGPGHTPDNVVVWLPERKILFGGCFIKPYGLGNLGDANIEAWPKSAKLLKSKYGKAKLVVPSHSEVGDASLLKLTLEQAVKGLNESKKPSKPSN
Summary of the method: (§2)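 Fluorescence assay of metallo-β-lactamase activity using CCF2-FA, a cephalosporin-linked 7-hydroxycoumarin–fluorescein substrate. Inhibitor, enzyme and substrate were incubated together for 2 hours at 25° C. IC50 came from a 4-parameter fit of inhibition versus inhibitor concentration.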

NDM-1 = NDM-1 (Klebsiella pneumoniae, UniProt C7C422); test: biochemical; type: biochemical; conditions: CCF2-FA substrate, 2 hours at 25° C; read-out: NDM-1 IC50
NDM-1, sequence (C7C422 whole entry, looked up, species assumed): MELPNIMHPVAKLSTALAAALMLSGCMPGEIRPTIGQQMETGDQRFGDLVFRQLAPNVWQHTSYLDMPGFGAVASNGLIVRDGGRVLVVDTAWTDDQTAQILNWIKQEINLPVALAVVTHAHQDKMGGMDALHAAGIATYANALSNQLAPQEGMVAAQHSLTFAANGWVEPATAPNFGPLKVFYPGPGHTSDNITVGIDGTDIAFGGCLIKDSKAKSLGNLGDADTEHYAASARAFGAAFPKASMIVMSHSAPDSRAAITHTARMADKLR
Summary of the method: as §2

VIM-1 = VIM-1 (Pseudomonas aeruginosa (strain ATCC 15692 / DSM 22644 / CIP 104116 / JCM 14847 / LMG 12228 / 1C / PRS 101 / PAO1), UniProt A0A0F7KYQ8); test: biochemical; conditions: CCF2-FA substrate, 2 hours at 25° C
Summary of the method: as §2

[4] = tested on: P. aeruginosa expressing IMP-1, efflux− (MB9799); test: Efflux: concentration of MBL inhibitor which restores susceptibility to imipenem; type: cell-based, Pseudomonas aeruginosa; conditions: imipenem at 2 μg/mL, in the presence of a class A, C, D serine β-lactamase inhibitor closely related to relebactam
Description: (§3) The strain background is Pseudomonas aeruginosa PAO1.

[5] = tested on: P. aeruginosa expressing IMP-1, efflux+ (MB9798); type: cell-based, Pseudomonas aeruginosa; conditions: for P. aeruginosa expressing IMP-1, efflux+ (MB9798) MITC95: imipenem at 2 μg/mL, in the presence of a class A, C, D serine β-lactamase inhibitor closely related to relebactam; for Efflux ratio: ratio MITC95 PA_9798/MITC95 PA_9799
Description: as §3

Row | SMILES | Klebsiella pneumoniae expressing VIM-1 (IHMA599644) MITC95 [1] [µM] | Serratia marcescens expressing IMP-1 (CL5741) MITC95 [2] [µM] | Escherichia coli expressing NDM-1 (CLB30016) MITC95 [3] [µM] | IC50 (IMP-1) [nM] | IC50 (NDM-1) [nM] | IC50 (VIM-1) [nM] | P. aeruginosa expressing IMP-1, efflux− (MB9799) MITC95 [4] [µM] | P. aeruginosa expressing IMP-1, efflux+ (MB9798) MITC95 [5] [µM] | Efflux ratio [5] | Klebsiella pneumoniae MITC95 [1] [µM] | Serratia marcescens MITC95 [2] [µM] | Escherichia coli MITC95 [3] [µM]
1 | Nc1nc2c(-c3ccc(SC4CNC4)c(S(N)(=O)=O)c3-c3nn[nH]n3)cccc2[nH]1 [Example 2, 3-(2-amino-1H-benzo[d]imidazol-4-yl)-6-(azetidin-3-ylthio)-2-(2H-tetrazol-5-yl)benzenesulfonamide] | 6.25 | 1.781 | 0.5 | 75.8 | 2.24 | 73.7 | 1.281 | 6.25 | 4.88 |  |  | 
2 | NS(=O)(=O)c1c(S(=O)(=O)C2CNC2)ccc(-c2ccnc3[nH]nnc23)c1-c1nn[nH]n1 [Example 200, 3-(3H-[1,2,3]triazolo[4,5-b]pyridin-7-yl)-6-(azetidin-3-ylsulfonyl)-2-(2H-tetrazol-5-yl)benzenesulfonamide] | 100 | 25 | 25 | 13.7 | 5.65 | 21.6 | 25 | 100 | 4.00 |  |  | 
3 | CCCS(=O)(=O)c1ccc(C2=CCC(N)CC2)c(-c2nnn[nH]2)c1S(N)(=O)=O (stereo not drawn) [Example 211, 4′-amino-4-(propylsulfonyl)-2-(1H-tetrazol-5-yl)-2′,3′,4′,5′-tetrahydro-[1,1′-biphenyl]-3-sulfonamide] | 25 | 6.25 | 12.5 | 6.32 | 24.3 | 0.785 | 1.563 | 50 | 31.99 |  |  | 
4 | NCCS(=O)(=O)c1ccc(-c2ccc3[nH]ncc3c2)c(-c2nnn[nH]2)c1S(N)(=O)=O.O=C(O)C(F)(F)F [Example 167, 2-((4-(1H-indazol-5-yl)-2-sulfamoyl-3-(1H-tetrazol-5-yl)phenyl)sulfonyl)ethanaminium 2,2,2-trifluoroacetate] | 3.125 | 3.125 | 6.25 | 1.07 | 0.882 | 0.343 | 0.7813 | 6.25 | 8.00 |  |  | 
5 | CS(=O)(=O)Nc1nc2c(-c3ccc(S(=O)(=O)C4CCNCC4)c(S(N)(=O)=O)c3-c3nn[nH]n3)cccc2s1 [Example 325, 3-(2-(methylsulfonamido)benzo[d]thiazol-4-yl)-6-(piperidin-4-ylsulfonyl)-2-(2H-tetrazol-5-yl)benzenesulfonamide] |  |  |  | 0.239 | 0.0723 | 0.346 | 6.25 | 6.25 | 1.00 | 25 | 12.5 | 12.5
6 | NC[C@@H](O)CS(=O)(=O)c1ccc(-c2cccc3[nH]c(N)nc23)c(-c2nn[nH]n2)c1S(N)(=O)=O [Example 312, 3-(2-amino-1H-benzo[d]imidazol-4-yl)-6-((R)-3-amino-2-hydroxypropylsulfonyl)-2-(2H-tetrazol-5-yl)benzenesulfonamide] |  |  |  | 0.43 | 0.12 | 0.389 | 0.5573 | 0.2786 | 0.50 | 0.8542 | 0.5573 | 0.3477
7 | Nc1ccc2ncc(-c3ccc(S(=O)(=O)C4CNC4)c(S(N)(=O)=O)c3-c3nn[nH]n3)n2n1 [Example 17, 3-(6-Aminoimidazo[1,2-b]pyridazin-3-yl)-6-(azetidin-3-ylsulfonyl)-2-(2H-tetrazol-5-yl)benzenesulfonamide] | 6.25 | 3.125 | 3.125 | 0.959 | 0.207 | 0.707 | 1.563 | 3.125 | 2.00 |  |  | 
8 | NC[C@H](O)CS(=O)(=O)c1ccc(-c2cccc3[nH]cnc23)c(-c2nn[nH]n2)c1S(N)(=O)=O [Example 353, (S)-6-((3-amino-2-hydroxypropyl)sulfonyl)-3-(1H-benzo[d]imidazol-4-yl)-2-(2H-tetrazol-5-yl) benzenesulfonamide] |  |  |  | 0.392 | 0.185 | 0.202 | 0.7813 | 0.7813 | 1.00 | 3.125 | 1.563 | 1.563
9 | CCn1c(N)nc2c(-c3ccc(S(=O)(=O)CCN)c(S(N)(=O)=O)c3-c3nn[nH]n3)cccc21 [Example 284, 3-(2-amino-1-ethyl-1H-benzo[d]imidazol-4-yl)-6-(2-aminoethylsulfonyl)-2-(2H-tetrazol-5-yl)benzenesulfonamide] |  |  |  | 0.327 | 0.289 | 0.507 | 0.7813 | 3.125 | 4.00 | 1.563 | 1.563 | 0.3906
10 | Nc1ccc(-c2ccc(S(=O)(=O)C3CCNCC3)c(S(N)(=O)=O)c2-c2nn[nH]n2)cn1 [Example 24, 3-(6-aminopyridin-3-yl)-6-(piperidin-4-ylsulfonyl)-2-(2H-tetrazol-5-yl)benzenesulfonamide] | 3.125 | 3.125 | 3.125 | 0.528 | 0.382 | 0.218 | 1.563 | 3.125 | 2.00 |  |  | 
11 | C[S+]([O-])c1ccc(-c2ccc(C3CCNCC3)cc2)c(-c2nnn[nH]2)c1S(N)(=O)=O (stereo not drawn) [Example 235, 4-(methylsulfinyl)-4′-(piperidin-4-yl)-2-(1H-tetrazol-5-yl)-[1,1′-biphenyl]-3-sulfonamide] | 50 | 12.5 | 12.5 | 23.6 | 31.9 | 8.18 | 6.25 | 50 | 8.00 |  |  | 
12 | NS(=O)(=O)c1c(S(=O)(=O)C2CNC2)ccc(-c2cccn3ccnc23)c1-c1nnn[nH]1 [Example 58, 6-(Azetidin-3-ylsulfonyl)-3-(imidazo[1,2-a]pyridin-8-yl)-2-(1H-tetrazol-5-yl)benzenesulfonamide] | 3.125 | 1.563 | 0.7813 | 0.597 | 0.378 | 0.342 | 1.563 | 1.563 | 1.00 |  |  | 
13 | NS(=O)(=O)c1c(S(=O)(=O)C2CNC2)ccc(-c2ccc3cnccc3c2)c1-c1nnn[nH]1.O=C(O)C(F)(F)F [Example 116, 3-((4-(isoquinolin-6-yl)-2-sulfamoyl-3-(1H-tetrazol-5-yl)phenyl)sulfonyl)azetidin-1-ium 2,2,2-trifluoroacetate] | 3.125 | 3.125 | 1.563 | 0.722 | 0.199 | 0.177 | 1.563 | 25 | 15.99 |  |  | 
